# From patent US20100130512A1, “FUSED-RING H[…]” (RENSSELAER POLYTECHNIC INSTITUTE, priority 2007, published 2010)
# Like-named read-outs stand apart in the source and are kept apart here.
# How the values were obtained:
# [1] = target: T1, human opioid receptor (κ) (Homo sapiens, UniProt P41145); assay: Opioid receptor binding, [3H]U69,593 (κ)
# T1 construct: expressed in transfected cells
# [2] = target: T2, human opioid receptor (μ) (Homo sapiens, UniProt P35372); assay: Opioid receptor binding, [3H]DAMGO (μ)
# T2 construct: expressed in transfected cells
# T2 sequence (P35372 whole entry): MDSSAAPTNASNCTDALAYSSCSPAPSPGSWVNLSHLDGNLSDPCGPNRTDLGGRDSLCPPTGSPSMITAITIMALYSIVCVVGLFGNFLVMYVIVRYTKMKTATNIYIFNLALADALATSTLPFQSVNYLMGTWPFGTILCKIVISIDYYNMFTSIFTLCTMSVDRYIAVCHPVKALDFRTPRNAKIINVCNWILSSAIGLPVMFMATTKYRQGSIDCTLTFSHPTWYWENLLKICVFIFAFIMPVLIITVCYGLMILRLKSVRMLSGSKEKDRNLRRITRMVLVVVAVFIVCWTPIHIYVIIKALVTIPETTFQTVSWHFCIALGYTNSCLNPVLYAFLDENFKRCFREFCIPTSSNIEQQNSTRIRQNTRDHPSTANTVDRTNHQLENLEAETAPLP
# [3] = target: T3, human opioid receptor (δ) (Homo sapiens, UniProt P41143); assay: Opioid receptor binding, [3H]naltrindole (δ)
# T3 construct: expressed in transfected cells
# T3 sequence (P41143 whole entry): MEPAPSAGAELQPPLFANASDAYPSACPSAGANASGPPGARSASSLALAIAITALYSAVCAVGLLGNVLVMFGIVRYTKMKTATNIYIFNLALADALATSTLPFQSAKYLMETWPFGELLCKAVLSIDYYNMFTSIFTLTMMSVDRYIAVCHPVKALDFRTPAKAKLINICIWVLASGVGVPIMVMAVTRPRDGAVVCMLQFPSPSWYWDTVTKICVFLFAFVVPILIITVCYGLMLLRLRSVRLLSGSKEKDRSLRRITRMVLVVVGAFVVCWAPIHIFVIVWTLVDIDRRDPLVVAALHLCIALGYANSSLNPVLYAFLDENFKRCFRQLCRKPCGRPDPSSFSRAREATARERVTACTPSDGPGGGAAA
# [4] = test system: κ opioid receptors; details: cyclazocine series; cited from earlier work
# [5] = test system: mice; details: cited from earlier work; for duration of action: 1 mg/kg ip in mice
# [6] = test system: guinea pig μ receptors; details: cyclazocine series; μ printed as ∥; cited from earlier work
# [7] = target: T4, human κ opioid receptor (Homo sapiens, UniProt P41145); assay: [35S]GTPγS binding assay, κ; type: biochemical; details: agonist/antagonist character; antagonism vs 100 nM U50,488
# T4 construct: expressed in transfected cells
# T4 sequence (P41145 whole entry): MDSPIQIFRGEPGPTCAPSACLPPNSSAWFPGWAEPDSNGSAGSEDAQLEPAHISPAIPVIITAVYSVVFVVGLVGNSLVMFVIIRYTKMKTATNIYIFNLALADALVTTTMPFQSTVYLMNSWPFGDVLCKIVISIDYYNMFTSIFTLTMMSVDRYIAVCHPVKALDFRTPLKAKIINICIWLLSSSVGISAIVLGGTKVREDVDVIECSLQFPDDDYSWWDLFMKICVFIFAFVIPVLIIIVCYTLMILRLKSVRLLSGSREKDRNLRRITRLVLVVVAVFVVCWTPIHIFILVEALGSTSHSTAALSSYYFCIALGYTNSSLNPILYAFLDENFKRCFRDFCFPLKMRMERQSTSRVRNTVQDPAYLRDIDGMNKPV
# [8] = target: T5, human μ opioid receptor (Homo sapiens, UniProt P35372); assay: [35S]GTPγS binding assay, μ; type: biochemical; details: agonist/antagonist character; antagonism vs 200 nM DAMGO
# T5 construct: expressed in transfected cells
# T5 sequence (P35372 whole entry): as the sequence (P35372 whole entry) above
# [9] = CHO cell membranes, 1 nM [3H]U69,593, mean±SEM, read-out: Ki [3H]U69,593 (K)
# [10] = read-out: Ki [3H]DAMGO (μ), CHO cell membranes, […] [3H]DAMGO, mean±SEM
# [11] = read-out: Ki [3H]Naltrindole (δ), CHO cell membranes, 0.2 nM [3H]naltrindole, mean±SEM
# T1 sequence (P41145 whole entry): as the sequence (P41145 whole entry) above
SMILES,Ki [2],Ki [3],"Ki [1, 9]",also measured
"CC1C2Cc3ccc(C(N)=O)c(N)c3C1(C)CCN2CC1CC1 (mixture of isomers) [Example 6, Cis-(±)-3-(cyclopropylmethyl)-1,2,3,4,5,6-hexahydro-6,11-dimethyl-7-amino-2,6-methano-3-benzazocine-8-carboxamide]",0.55 ± 0.029 nM,35 ± 0.036 nM,–,Ki [1]: 0.7 ± 0.036 nM
"C[C@H]1C2Cc3cc(N)c(C(N)=O)cc3[C@@]1(C)CCN2CC1CC1 (racemic) [Example 7, Cis-(±)-3-(cyclopropylmethyl)-1,2,3,4,5,6-hexahydro-6,11-dimethyl-9-amino-2,6-methano-3-benzazocine-8-carboxamide]",88 ± 5.2 nM,2000 ± 12 nM,–,Ki [1]: 32 ± 1.7 nM
"C[C@H]1C2Cc3ccc(C(N)=O)cc3[C@@]1(C)CCN2CC1CC1 [Example 8-CAC, 8-carboxamidocyclazocine]",–,–,–,affinity for κ opioid receptors [4]: high affinity; duration of action [5]: 15 h; antinociception activity ([5]; studies in vivo): high antinociception activity; affinity for μ opioid receptors [6]: high affinity
C[C@H]1C2Cc3ccc4c(=O)[nH]cnc4c3[C@@]1(C)CCN2CC1CC1 [Example 8],–,–,160 ± 7.1 nM,"Ki [2, 10]: 270 ± 33 nM; Ki [3, 11]: 2000 ± 49 nM"
C[C@H]1C2Cc3cc4nc[nH]c(=O)c4cc3[C@@]1(C)CCN2CC1CC1 [Example 9],–,–,12 ± 0.65 nM,"Ki [2, 10]: 170 ± 6.7 nM; Ki [3, 11]: 780 ± 32 nM"
CC1C2Cc3ccc4c(N)ncnc4c3C1(C)CCN2CC1CC1 (centres unmarked) [Example 10],0.55 ± 0.018 nM,120 ± 8.5 nM,1 ± 0.071 nM,"GTPγS data, KOR [7]: MOR and KOR antagonist; GTPγS data, MOR [8]: MOR and KOR antagonist"
CC1C2Cc3cc4ncnc(N)c4cc3C1(C)CCN2CC1CC1 (centres unmarked) [Example 11],890 ± 39 nM,–,560 ± 23 nM,"inhibition at 10 µM ([3]; read-out: inh. of [3H]Naltrindole (δ) binding, at 10 μM): 47%"
CC1C2Cc3ccc4c(NCc5ccccc5)ncnc4c3C1(C)CCN2CC1CC1 (centres unmarked) [Example 12],44 ± 0.76 nM,1500 ± 68 nM,240 ± 1.8 nM,–
CC1C2Cc3cc4ncnc(NCc5ccccc5)c4cc3C1(C)CCN2CC1CC1 (centres unmarked) [Example 13],88 ± 7.2 nM,1000 ± 37 nM,48 ± 2.3 nM,–
CC1C2Cc3ccc4c(NCCc5ccc(-c6ccccc6)cc5)ncnc4c3C1(C)CCN2CC1CC1 (centres unmarked) [Example 14],6.9 ± 0.33 nM,52 ± 2.6 nM,8.6 ± 1.5 nM,–
CC1C2Cc3cc4ncnc(NCCc5ccc(-c6ccccc6)cc5)c4cc3C1(C)CCN2CC1CC1 (centres unmarked) [Example 15],28 ± 1.9 nM,410 ± 61 nM,140 ± 4.4 nM,–
C[C@H]1C2Cc3ccc4[nH]nnc4c3[C@@]1(C)CCN2CC1CC1 [Example 29],–,–,0.23 ± 0.009 nM,"GTPγS data, KOR [7]: agonist; GTPγS data, MOR [8]: antagonist; Ki [2, 10]: 1.4 ± 0.043 nM; Ki [3, 11]: 46 ± 2.6 nM"
C[C@H]1C2Cc3cc4nn[nH]c4cc3[C@@]1(C)CCN2CC1CC1 [Example 30],–,–,0.81 ± 0.19 nM,"GTPγS data, KOR [7]: agonist; GTPγS data, MOR [8]: antagonist; Ki [2, 10]: 10 ± 1 nM; Ki [3, 11]: 51 ± 7.8 nM"
CC1C2Cc3cc4nc[nH]c4cc3C1(C)CCN2CC1CC1 (centres unmarked) [Example 34],0.31 ± 0.05 nM,5.1 ± 0.65 nM,0.063 ± 0.0016 nM,"GTPγS data, MOR [8]: MOR weak agonist/antagonist, KOR"
Cc1nc2cc3c(cc2[nH]1)CC1C(C)C3(C)CCN1CC1CC1 (centres unmarked) [Example 35],0.77 ± 0.051 nM,18 ± 0.9 nM,0.05 ± 0.002 nM,"GTPγS data, KOR [7]: agonist; GTPγS data, MOR [8]: MOR agonist/weak antagonist; KOR"
CC1C2Cc3cc4[nH]c(=O)[nH]c4cc3C1(C)CCN2CC1CC1 (centres unmarked) [Example 36],60 ± 7.9 nM,730 ± 8.3 nM,12 ± 1.3 nM,–
C[C@H]1C2Cc3ccc4c(N)onc4c3[C@@]1(C)CCN2CC1CC1 [Example 43],0.75 ± 0.038 nM,99 ± 10 nM,0.65 ± 0.005 nM,–
C[C@H]1[C@H]2Cc3ccc(O)cc3[C@]1(C)CCN2CC1CC1 [cyclazocine],–,–,–,duration of action [5]: 2 h
